The test system of the experiment is MV-4-11 cells. Description: Gene expression microarray analysis (Affymetrix PrimeView) and GSEA. Format: cell-based, human. Particulars: MV-4-11 cells, 48 hours. Also noted: RFU PODN (11730768_x_at) / Fold change /veh PODN (11730768_x_at) / RFU LINC00158 (11744669_a_at) / Fold change /veh LINC00158 (11744669_a_at) / RFU DUSP10 (11751237_a_at) / Fold change /veh DUSP10 (11751237_a_at) / RFU ID3 (11757404_x_at) / Fold change /veh ID3 (11757404_x_at) / RFU PLEKHG5 (11737974_s_at) / Fold change /veh PLEKHG5 (11737974_s_at) / RFU LRRC4B (11730491_at) / Fold change /veh LRRC4B (11730491_at) / RFU GIMAP4 (11747438_a_at) / Fold change /veh GIMAP4 (11747438_a_at) / RFU KRT8 (11758183_x_at) / Fold change /veh KRT8 (11758183_x_at) / RFU CNN1 (11734310_a_at) / Fold change /veh CNN1 (11734310_a_at) / RFU VPS37D (11726825_at) / Fold change /veh VPS37D (11726825_at) / RFU C10orf10 (11716522_x_at) / Fold change /veh C10orf10 (11716522_x_at) / RFU KIR2DL2 /// KIR2DL4 /// KIR2DL5A /// KIR2DL5B /// KIR2DS1 /// KIR2DS2 /// KIR2DS3 /// KIR2DS4 /// KIR3DL3 /// KIR3DL3 /// KIR3DS1 (11738374_at) / Fold change /veh KIR2DL2 /// KIR2DL4 /// KIR2DL5A /// KIR2DL5B /// KIR2DS1 /// KIR2DS2 /// KIR2DS3 /// KIR2DS4 /// KIR3DL3 /// KIR3DL3 /// KIR3DS1 (11738374_at) / RFU C1QL1 (11718748_at) / Fold change /veh C1QL1 (11718748_at) / RFU TMPRSS4 (11747572_a_at) / Fold change /veh TMPRSS4 (11747572_a_at) / RFU HAMP (11756126_x_at) / Fold change /veh HAMP (11756126_x_at) / RFU RNFT2 (11725882_a_at) / Fold change /veh RNFT2 (11725882_a_at) / RFU NR4A2 (11747474_a_at) / Fold change /veh NR4A2 (11747474_a_at) / RFU ABCC12 (11746883_a_at) / Fold change /veh ABCC12 (11746883_a_at) / RFU TMEM136 (11760407_x_at) / Fold change /veh TMEM136 (11760407_x_at) / RFU CLDN22 /// WWC2 (11732394_at) / Fold change /veh CLDN22 /// WWC2 (11732394_at) / RFU HLA-DPB1 (11760878_x_at) / Fold change /veh HLA-DPB1 (11760878_x_at) / RFU SPINT1 (11716480_a_at) / Fold change /veh SPINT1 (11716480_a_at) / RFU GAP43 (11754022_s_at) / Fold change /veh GAP43 (11754022_s_at) / RFU A4GNT (11735810_at) / Fold change /veh A4GNT (11735810_at) / RFU PRB3 (11715151_x_at) / Fold change /veh PRB3 (11715151_x_at) / RFU TUBB4B (11761932_at) / Fold change /veh TUBB4B (11761932_at) / RFU CAPN14 (11732068_a_at) / Fold change /veh CAPN14 (11732068_a_at) / RFU TMCC2 (11721928_a_at) / Fold change /veh TMCC2 (11721928_a_at) / RFU IRGQ (11745062_a_at) / Fold change /veh IRGQ (11745062_a_at) / RFU FAM174B (11720279_a_at) / Fold change /veh FAM174B (11720279_a_at) / RFU TMPRSS4 (11748680_a_at) / Fold change /veh TMPRSS4 (11748680_a_at) / RFU FAM212B (11763350_a_at) / Fold change /veh FAM212B (11763350_a_at) / RFU PLEKHG5 (11743358_a_at) / Fold change /veh PLEKHG5 (11743358_a_at) / RFU ZSCAN30 (11745921_a_at) / Fold change /veh ZSCAN30 (11745921_a_at) / RFU CMKLR1 (11741424_a_at) / Fold change /veh CMKLR1 (11741424_a_at) / RFU LOC101060620 /// MAPK8IP1 (11723275_at) / Fold change /veh LOC101060620 /// MAPK8IP1 (11723275_at) / RFU SPTSSB (11747773_x_at) / Fold change /veh SPTSSB (11747773_x_at) / RFU PRSS12 (11739890_at) / Fold change /veh PRSS12 (11739890_at) / RFU BIN1 (11741810_x_at) / Fold change /veh BIN1 (11741810_x_at) / RFU WNT11 (11732464_a_at) / Fold change /veh WNT11 (11732464_a_at) / RFU C10orf10 (11716521_a_at) / Fold change /veh C10orf10 (11716521_a_at) / RFU C5orf56 (11738089_at) / Fold change /veh C5orf56 (11738089_at) / RFU CYB561 (11721691_x_at) / Fold change /veh CYB561 (11721691_x_at) / RFU ANKRD19P (11752326_a_at) / Fold change /veh ANKRD19P (11752326_a_at) / RFU OR2T12 /// OR2T33 /// OR2T8 (11738714_s_at) / Fold change /veh OR2T12 /// OR2T33 /// OR2T8 (11738714_s_at) / RFU VCAN (11748164_a_at) / Fold change /veh VCAN (11748164_a_at) / RFU JSRP1 (11732532_at) / Fold change /veh JSRP1 (11732532_at) / RFU KRTAP10-11 (11738290_x_at) / Fold change /veh KRTAP10-11 (11738290_x_at) / RFU MYO3A (11730013_a_at) / Fold change /veh MYO3A (11730013_a_at) / RFU EBF3 (11725865_a_at) / Fold change /veh EBF3 (11725865_a_at) / RFU CAMK2N1 (11719241_x_at) / Fold change /veh CAMK2N1 (11719241_x_at) / RFU C5orf56 (11738088_a_at) / Fold change /veh C5orf56 (11738088_a_at) / RFU OLFML3 (11715873_a_at) / Fold change /veh OLFML3 (11715873_a_at) / RFU LOC100653217 /// NTM (11731650_a_at) / Fold change /veh LOC100653217 /// NTM (11731650_a_at) / RFU MAPK11 (11762145_a_at) / Fold change /veh MAPK11 (11762145_a_at) / RFU FIZ1 (11724087_x_at) / Fold change /veh FIZ1 (11724087_x_at) / RFU OASL (11726364_x_at) / Fold change /veh OASL (11726364_x_at) / RFU SOX15 (11748057_x_at) / Fold change /veh SOX15 (11748057_x_at) / RFU CD79A (11719716_a_at) / Fold change /veh CD79A (11719716_a_at) / RFU HIST1H1D (11736915_at) / Fold change /veh HIST1H1D (11736915_at) / RFU CASKIN2 (11723855_a_at) / Fold change /veh CASKIN2 (11723855_a_at) / RFU LOC730098 (11760151_x_at) / Fold change /veh LOC730098 (11760151_x_at) / RFU OR4N2 (11742367_at) / Fold change /veh OR4N2 (11742367_at) / RFU PRRT2 (11749266_a_at) / Fold change /veh PRRT2 (11749266_a_at) / RFU SNX32 (11753110_a_at) / Fold change /veh SNX32 (11753110_a_at) / RFU CDHR5 (11726645_a_at) / Fold change /veh CDHR5 (11726645_a_at) / RFU RCAN1 (11760418_a_at) / Fold change /veh RCAN1 (11760418_a_at) / RFU FAM167A (11723789_a_at) / Fold change /veh FAM167A (11723789_a_at) / RFU FAM26E (11764081_at) / Fold change /veh FAM26E (11764081_at) / RFU ISYNA1 (11749810_s_at) / Fold change /veh ISYNA1 (11749810_s_at) / RFU ACY1 (11761880_at) / Fold change /veh ACY1 (11761880_at) / RFU 11764098_at / Fold change /veh 11764098_at / RFU SAMD14 (11745864_x_at) / Fold change /veh SAMD14 (11745864_x_at) / RFU NPB (11741838_a_at) / Fold change /veh NPB (11741838_a_at) / RFU TMPRSS6 (11731388_a_at) / Fold change /veh TMPRSS6 (11731388_a_at) / RFU KRTAP10-2 (11738614_at) / Fold change /veh KRTAP10-2 (11738614_at) / RFU ARHGAP8 /// PRR5-ARHGAP8 (11727945_x_at) / Fold change /veh ARHGAP8 /// PRR5-ARHGAP8 (11727945_x_at) / RFU KRTAP5-7 /// NADSYN1 (11734609_at) / Fold change /veh KRTAP5-7 /// NADSYN1 (11734609_at) / RFU RASL12 (11751679_a_at) / Fold change /veh RASL12 (11751679_a_at) / RFU CDKN2B (11736163_a_at) / Fold change /veh CDKN2B (11736163_a_at) / RFU PRF1 (11729649_at) / Fold change /veh PRF1 (11729649_at) / RFU, ZNF638 /// ZNF638-IT1 / Fold change vs veh, ZNF638 /// ZNF638-IT1 / RFU, PANK3 / Fold change vs veh, PANK3 / RFU, SH3YL1 / Fold change vs veh, SH3YL1 / RFU, ZEB2 / Fold change vs veh, ZEB2 / RFU, NRIP1 / Fold change vs veh, NRIP1 / RFU, PTTG1IP / Fold change vs veh, PTTG1IP / RFU, CAPN2 / Fold change vs veh, CAPN2 / RFU, MED14 / Fold change vs veh, MED14 / RFU, SNORA58 / Fold change vs veh, SNORA58 / RFU, C1orf63 / Fold change vs veh, C1orf63 / RFU, LRRFIP1 / Fold change vs veh, LRRFIP1 / RFU, NDUFAF7 / Fold change vs veh, NDUFAF7 / RFU, SLC12A2 / Fold change vs veh, SLC12A2 / RFU, IBTK / Fold change vs veh, IBTK / RFU, ESF1 / Fold change vs veh, ESF1 / Fold change vs veh, TMEM50B / RFU, TAOK1 / Fold change vs veh, TAOK1 / RFU, ACBD3 / Fold change vs veh, ACBD3 / RFU, TMA16 / Fold change vs veh, TMA16 / RFU, RWDD3 / Fold change vs veh, RWDD3 / RFU, BCAT1 / Fold change vs veh, BCAT1 / RFU, EDEM3 / Fold change vs veh, EDEM3 / RFU, TMEM33 / Fold change vs veh, TMEM33 / RFU, WDR75 / Fold change vs veh, WDR75 / RFU, AHCTF1 / Fold change vs veh, AHCTF1 / RFU, TFRC / Fold change vs veh, TFRC / RFU, ZDHHC17 / Fold change vs veh, ZDHHC17 / RFU, NOM1 / Fold change vs veh, NOM1 / RFU, ARL8B / Fold change vs veh, ARL8B / RFU, ZBTB11 / Fold change vs veh, ZBTB11 / RFU, TAMM41 / Fold change vs veh, TAMM41 / RFU, KIAA1704 /// LOC100996395 / Fold change vs veh, KIAA1704 /// LOC100996395 / RFU, ING1 / Fold change vs veh, ING1 / RFU, TRMT61B / Fold change vs veh, TRMT61B / RFU, FUBP3 / Fold change vs veh, FUBP3 / RFU, TP53 / Fold change vs veh, TP53 / RFU, TNKS2 / Fold change vs veh, TNKS2 / RFU, ZFP14 / Fold change vs veh, ZFP14 / RFU, ACTR2 / Fold change vs veh, ACTR2 / RFU, PPP3R1 / Fold change vs veh, PPP3R1 / RFU, PIK3R1 / Fold change vs veh, PIK3R1 / RFU, HNRNPA1 / Fold change vs veh, HNRNPA1 / RFU, RNF170 / Fold change vs veh, RNF170 / RFU, ZNF28 / Fold change vs veh, ZNF28 / RFU, RNGTT / Fold change vs veh, RNGTT / RFU, OGT / Fold change vs veh, OGT / RFU, BRD1 / Fold change vs veh, BRD1 / RFU, MARS / Fold change vs veh, MARS / RFU, ZNF655 / Fold change vs veh, ZNF655 / RFU, FAHD1 / Fold change vs veh, FAHD1 / RFU, BDP1 / Fold change vs veh, BDP1 / RFU, LRRCC1 / Fold change vs veh, LRRCC1 / RFU, ARID1A / Fold change vs veh, ARID1A / RFU, ZNF146 / Fold change vs veh, ZNF146 / RFU, ZNF330 / Fold change vs veh, ZNF330 / RFU, GPN3 / Fold change vs veh, GPN3 / RFU, C9orf123 / Fold change vs veh, C9orf123 / RFU, N4BP2L2 / Fold change vs veh, N4BP2L2 / RFU, ARFIP1 / Fold change vs veh, ARFIP1 / RFU, FAM179B / Fold change vs veh, FAM179B / RFU, BCL10 / Fold change vs veh, BCL10 / RFU, UHRF1BP1L / Fold change vs veh, UHRF1BP1L / RFU, BET1 / Fold change vs veh, BET1 / RFU, CNOT2 / Fold change vs veh, CNOT2 / RFU, ZNF268 / Fold change vs veh, ZNF268 / Fold change vs veh, ZNF507 / RFU, DGCR2 / Fold change vs veh, DGCR2 / RFU, WDSUB1 / Fold change vs veh, WDSUB1 / Fold change vs veh, HSP90B1 /// MIR3652 / RFU, ADSS / Fold change vs veh, ADSS / RFU, GK / Fold change vs veh, GK / RFU, ZNF148 / Fold change vs veh, ZNF148 / RFU, TAF9 / Fold change vs veh, TAF9 / RFU, SLC1A5 / Fold change vs veh, SLC1A5 / RFU, SLMO2 / Fold change vs veh, SLMO2 / RFU, ABCC4 / Fold change vs veh, ABCC4 / RFU, LOC101060439 /// RAP1B / Fold change vs veh, LOC101060439 /// RAP1B / RFU, RFX7 / Fold change vs veh, RFX7 / RFU, GTPBP10 / Fold change vs veh, GTPBP10 / RFU, CNEP1R1 / Fold change vs veh, CNEP1R1 / RFU, BIVM-ERCC5 /// ERCC5 / Fold change vs veh, BIVM-ERCC5 /// ERCC5 / RFU, ILF3 / Fold change vs veh, ILF3 / RFU 11762660_at / Fold change /veh 11762660_at / RFU VCAN (11757783_s_at) / Fold change /veh VCAN (11757783_s_at) / RFU DDX43 (11728927_at) / Fold change /veh DDX43 (11728927_at) / RFU KRT8 (11758188_x_at) / Fold change /veh KRT8 (11758188_x_at) / RFU NKD1 (11759106_at) / Fold change /veh NKD1 (11759106_at) / RFU SRD5A1 (11742802_a_at) / Fold change /veh SRD5A1 (11742802_a_at) / RFU TPSAB1 /// TPSB2 (11721975_s_at) / Fold change /veh TPSAB1 /// TPSB2 (11721975_s_at) / RFU GSTM3 (11746129_a_at) / Fold change /veh GSTM3 (11746129_a_at) / RFU IL23R (11737362_x_at) / Fold change /veh IL23R (11737362_x_at) / RFU TMEM51 (11727254_a_at) / Fold change /veh TMEM51 (11727254_a_at) / RFU PIWIL2 (11732686_x_at) / Fold change /veh PIWIL2 (11732686_x_at) / RFU ORM1 (11744905_x_at) / Fold change /veh ORM1 (11744905_x_at) / RFU CCDC152 (11743942_at) / Fold change /veh CCDC152 (11743942_at) / RFU ECM1 (11717891_a_at) / Fold change /veh ECM1 (11717891_a_at) / RFU IL23R (11748794_a_at) / Fold change /veh IL23R (11748794_a_at) / RFU TNFAIP8L3 (11732012_x_at) / Fold change /veh TNFAIP8L3 (11732012_x_at) / RFU MBOAT4 (11741988_at) / Fold change /veh MBOAT4 (11741988_at) / RFU 11764193_at / Fold change /veh 11764193_at / RFU TMEM53 (11763286_at) / Fold change /veh TMEM53 (11763286_at) / RFU MAGEB2 (11727129_at) / Fold change /veh MAGEB2 (11727129_at) / RFU TMEM200A (11744735_a_at) / Fold change /veh TMEM200A (11744735_a_at) / RFU CCDC152 (11751479_a_at) / Fold change /veh CCDC152 (11751479_a_at) / RFU FAM211A (11726209_a_at) / Fold change /veh FAM211A (11726209_a_at) / RFU RGS16 (11746705_a_at) / Fold change /veh RGS16 (11746705_a_at) / RFU VCAN (11755009_s_at) / Fold change /veh VCAN (11755009_s_at) / RFU RHOB (11743442_s_at) / Fold change /veh RHOB (11743442_s_at) / RFU RGS16 (11720943_a_at) / Fold change /veh RGS16 (11720943_a_at) / RFU RGS16 (11720944_at) / Fold change /veh RGS16 (11720944_at) / RFU, VPS4B / Fold change vs veh, VPS4B / RFU, CREB1 / Fold change vs veh, CREB1 / RFU, DNAJC13 / Fold change vs veh, DNAJC13 / RFU, GNAQ / Fold change vs veh, GNAQ / RFU, CDK5R1 / Fold change vs veh, CDK5R1 / RFU, ZRANB3 / Fold change vs veh, ZRANB3 / RFU, CUL4A / Fold change vs veh, CUL4A / RFU, CCNY / Fold change vs veh, CCNY / RFU, UFL1 / Fold change vs veh, UFL1 / RFU, COG3 / Fold change vs veh, COG3 / RFU, DIAPH2 / Fold change vs veh, DIAPH2 / RFU, SKA2 / Fold change vs veh, SKA2 / RFU, AFF3 / Fold change vs veh, AFF3 / RFU, LMF1 / Fold change vs veh, LMF1 / RFU, IPO11 / Fold change vs veh, IPO11 / RFU, DFFB / Fold change vs veh, DFFB / RFU, FOXP1 / Fold change vs veh, FOXP1 / RFU, CARD8 / Fold change vs veh, CARD8 / RFU, STRN3 / Fold change vs veh, STRN3 / RFU, ADK / Fold change vs veh, ADK / RFU, RASSF2 / Fold change vs veh, RASSF2 / RFU, WIPF1 / Fold change vs veh, WIPF1 / RFU, LARP1B / Fold change vs veh, LARP1B / RFU, RASA1 / Fold change vs veh, RASA1 / RFU, RB1 / Fold change vs veh, RB1 / RFU, PPFIA1 / Fold change vs veh, PPFIA1 / RFU, MAT2A / Fold change vs veh, MAT2A / RFU, CCT5 / Fold change vs veh, CCT5 / RFU, WDR92 / Fold change vs veh, WDR92 / RFU, CUX1 / Fold change vs veh, CUX1 / RFU, TTC7A / Fold change vs veh, TTC7A / RFU, TMEM135 / Fold change vs veh, TMEM135 / RFU, DEPTOR / Fold change vs veh, DEPTOR / RFU, CPM / Fold change vs veh, CPM / RFU, DNAJB6 / Fold change vs veh, DNAJB6 / RFU, CACNA2D3 / Fold change vs veh, CACNA2D3 / RFU, DTX4 / Fold change vs veh, DTX4 / RFU, TFCP2 / Fold change vs veh, TFCP2 / RFU, GMCL1 /// GMCL1P1 / Fold change vs veh, GMCL1 /// GMCL1P1 / RFU, AEBP2 / Fold change vs veh, AEBP2 / RFU, SNHG1 /// SNORD22 /// SNORD25 /// SNORD26 /// SNORD27 /// SNORD28 /// SNORD29 /// SNORD31 / Fold change vs veh, SNHG1 /// SNORD22 /// SNORD25 /// SNORD26 /// SNORD27 /// SNORD28 /// SNORD29 /// SNORD31 / Fold change (Aza/veh), C12orf56 (ProbeSet 11735607_a_at) / Fold change (ACY-1035/veh), C12orf56 (ProbeSet 11735607_a_at) / Fold change (Aza/veh), FGFR1OP (ProbeSet 11751329_s_at) / Fold change (ACY-1035/veh), FGFR1OP (ProbeSet 11751329_s_at) / Fold change (Aza/veh), VPS36 (ProbeSet 11739960_a_at) / Fold change (ACY-1035/veh), VPS36 (ProbeSet 11739960_a_at) / RFU SYPL1 (11715823_x_at) / Fold change /veh SYPL1 (11715823_x_at) / RFU IGFBP7 (11715501_s_at) / Fold change /veh IGFBP7 (11715501_s_at) / RFU REEP3 (11722064_at) / Fold change /veh REEP3 (11722064_at) / RFU IGLL1 (11728026_x_at) / Fold change /veh IGLL1 (11728026_x_at): dose or concentration left out as unconfirmed.

Regarding `Nc1ncn([C@@H]2O[C@H](CO)[C@@H](O)[C@H]2O)c(=O)n1` [azacitidine], the “Fold change /veh C5orf56 (11738088_a_at)” value is listed as 0.98.

For the origin of these results see paper PMC5218480 (PLoS ONE, 2017).
